Legend:
Type in all cases: cell-based, mouse
[1] = test system: α7 integrin (LacZ reporter in α7+/LacZ myotubes); assay: Myotube α7 integrin FDG assay (Burkin assay in myotubes, 96-well); conditions: myotubes
[2] = test system: β-galactosidase in CMV-LacZ C2C12 myotubes; assay: CMV-LacZ secondary screen in C2C12 myotubes (β-Gal stabilizing assay); conditions: for CMV-LACZ in Myotubes (β-galactosidase activity relative to DMSO): CMV-LacZ C2C12 myotubes, 96-well format; for CMV-LACZ in Myotubes, signal relative to DMSO: C2C12 CMV-LacZ myotubes, fold relative to DMSO
Summary of the method: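 First, C2C12 myoblasts were transfected with a linearized CMV-LACZ vector and clonal lines selected by FDG β-gal assay. Then cells were exposed to compounds at 0.5, 1, 5, 10, 20 and 40 μM in 96-well format, two replicates each, and β-gal measured.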

[3] = test system: α7 integrin (LacZ reporter in α7βgal+/− myoblasts); assay: Myoblast α7+/LacZ integrin FDG assay (Burkin assay in myoblasts, 96-well); conditions: α7+/LacZ myoblasts, 96-well

Compound: CCc1ccc(N(C(=O)c2snc(C(N)=O)c2N)C(C(=O)NC2CCCC2)c2ccco2)cc1 (centres unmarked) [MLS001216714-01]
- fold induction at 0.5 µM ([1]; Mus musculus, Myotube, 0.5 uM, read-out: Burkin Assay in Myotubes (signal relative to DMSO)): 1.03
- fold induction at 1 µM ([1]; Mus musculus, Myotube, 1 uM, read-out: Burkin Assay in Myotubes (signal relative to DMSO)): 1.17
- fold induction at 5 µM ([1]; Mus musculus, Myotube, 5 uM, read-out: Burkin Assay in Myotubes (signal relative to DMSO)): 1.1
- fold induction at 10 µM ([1]; Mus musculus, Myotube, 10 uM, read-out: Burkin Assay in Myotubes (signal relative to DMSO)): 1.32
- fold induction at 20 µM ([1]; Mus musculus, Myotube, 20 uM, read-out: Burkin Assay in Myotubes (signal relative to DMSO)): 0.706
- fold induction at 40 µM ([1]; Mus musculus, Myotube, 40 uM, read-out: Burkin Assay in Myotubes (signal relative to DMSO)): 0.677
- CMV-LACZ in Myotubes (β-galactosidase activity relative to DMSO) ([2]; 5 uM): 0.9162
- CMV-LACZ in Myotubes (β-galactosidase activity relative to DMSO) ([2]; 10 uM): 0.98
- CMV-LACZ in Myotubes (β-galactosidase activity relative to DMSO) ([2]; 20 uM): 1.417
- CMV-LACZ in Myotubes (β-galactosidase activity relative to DMSO) ([2]; 40 uM): 3.633
- fold induction at 0.5 µM ([3]; Mus musculus, Myoblast, 48 h, 0.5 uM, read-out: Burkin Assay in Myoblasts, value relative to DMSO): 1.02
- fold induction at 1 µM ([3]; Mus musculus, Myoblast, 48 h, 1 uM, read-out: Burkin Assay in Myoblasts, value relative to DMSO): 0.971
- fold induction at 5 µM ([3]; Mus musculus, Myoblast, 48 h, 5 uM, read-out: Burkin Assay in Myoblasts, value relative to DMSO): 1.04
- fold induction at 10 µM ([3]; Mus musculus, Myoblast, 48 h, 10 uM, read-out: Burkin Assay in Myoblasts, value relative to DMSO): 1.14
- fold induction at 20 µM ([3]; Mus musculus, Myoblast, 48 h, 20 uM, read-out: Burkin Assay in Myoblasts, value relative to DMSO): 1.09
- fold induction at 40 µM ([3]; Mus musculus, Myoblast, 48 h, 40 uM, read-out: Burkin Assay in Myoblasts, value relative to DMSO): 0.274

Compound: Cc1ccc(NC(=O)COc2ccccc2CNC(C)(C)CC(C)(C)C)cc1 [MLS000538580-01]
- Burkin Assay in Myotubes, α7 integrin LacZ reporter signal relative to DMSO ([1]; 0.5 uM): 1.087
- Burkin Assay in Myotubes, α7 integrin LacZ reporter signal relative to DMSO ([1]; 1 uM): 1.025
- Burkin Assay in Myotubes, α7 integrin LacZ reporter signal relative to DMSO ([1]; 5 uM): 0.8641
- Burkin Assay in Myotubes, α7 integrin LacZ reporter signal relative to DMSO ([1]; 10 uM): 0.4774
- Burkin Assay in Myotubes, α7 integrin LacZ reporter signal relative to DMSO ([1]; 20 uM): 0.928
- Burkin Assay in Myotubes, α7 integrin LacZ reporter signal relative to DMSO ([1]; 40 uM): 0.1825
- CMV-LACZ in Myotubes, signal relative to DMSO ([2]; 5 uM): 0.6613
- CMV-LACZ in Myotubes, signal relative to DMSO ([2]; 10 uM): 0.5729
- CMV-LACZ in Myotubes, signal relative to DMSO ([2]; 20 uM): 0.3838
- CMV-LACZ in Myotubes, signal relative to DMSO ([2]; 40 uM): 0.2705
- Burkin Assay in Myoblasts, signal relative to DMSO ([3]; 0.5 uM): 0.9645
- Burkin Assay in Myoblasts, signal relative to DMSO ([3]; 1 uM): 0.9097
- Burkin Assay in Myoblasts, signal relative to DMSO ([3]; 5 uM): 0.8691
- Burkin Assay in Myoblasts, signal relative to DMSO ([3]; 10 uM): 0.5306
- Burkin Assay in Myoblasts, signal relative to DMSO ([3]; 20 uM): 0.03863
- Burkin Assay in Myoblasts, signal relative to DMSO ([3]; 40 uM): 0.02896

Compound: Cc1ccc(C2=C(CC(=O)O)C(=O)CC2)cc1 [MLS000553673-01]
- Burkin Assay in Myotubes (signal relative to DMSO) ([1]; 0.5 uM): 0.8749
- Burkin Assay in Myotubes (signal relative to DMSO) ([1]; 1 uM): 0.8923
- Burkin Assay in Myotubes (signal relative to DMSO) ([1]; 5 uM): 1.304
- Burkin Assay in Myotubes (signal relative to DMSO) ([1]; 10 uM): 1.161
- Burkin Assay in Myotubes (signal relative to DMSO) ([1]; 20 uM): 1.088
- Burkin Assay in Myotubes (signal relative to DMSO) ([1]; 40 uM): 1.134
- CMV-LACZ in Myotubes, signal relative to DMSO ([2]; 5 uM): 0.8021
- CMV-LACZ in Myotubes, signal relative to DMSO ([2]; 10 uM): 0.9603
- CMV-LACZ in Myotubes, signal relative to DMSO ([2]; 20 uM): 1.005
- CMV-LACZ in Myotubes, signal relative to DMSO ([2]; 40 uM): 0.9127
- Burkin Assay in Myoblasts, value relative to DMSO ([3]; 0.5 uM): 1.009
- Burkin Assay in Myoblasts, value relative to DMSO ([3]; 1 uM): 0.8952
- Burkin Assay in Myoblasts, value relative to DMSO ([3]; 5 uM): 1.038
- Burkin Assay in Myoblasts, value relative to DMSO ([3]; 10 uM): 1.0007
- Burkin Assay in Myoblasts, value relative to DMSO ([3]; 20 uM): 0.9043
- Burkin Assay in Myoblasts, value relative to DMSO ([3]; 40 uM): 0.8892

Compound: CCCNC(=S)N1CCC(NC(=O)c2ccc(OC)cc2)CC1 [MLS001211651-01]
- Burkin Assay in Myotubes, α7 integrin LacZ reporter signal relative to DMSO ([1]; 0.5 uM): 0.8543
- Burkin Assay in Myotubes, α7 integrin LacZ reporter signal relative to DMSO ([1]; 1 uM): 0.913
- Burkin Assay in Myotubes, α7 integrin LacZ reporter signal relative to DMSO ([1]; 5 uM): 1.116
- Burkin Assay in Myotubes, α7 integrin LacZ reporter signal relative to DMSO ([1]; 10 uM): 1.025
- Burkin Assay in Myotubes, α7 integrin LacZ reporter signal relative to DMSO ([1]; 20 uM): 1.076
- Burkin Assay in Myotubes, α7 integrin LacZ reporter signal relative to DMSO ([1]; 40 uM): 1.027
- CMV-LACZ in Myotubes, signal relative to DMSO ([2]; 5 uM): 0.8714
- CMV-LACZ in Myotubes, signal relative to DMSO ([2]; 10 uM): 0.8433
- CMV-LACZ in Myotubes, signal relative to DMSO ([2]; 20 uM): 0.8465
- CMV-LACZ in Myotubes, signal relative to DMSO ([2]; 40 uM): 0.977
- Burkin Assay in Myoblasts, signal relative to DMSO ([3]; 0.5 uM): 1.061
- Burkin Assay in Myoblasts, signal relative to DMSO ([3]; 1 uM): 1.124
- Burkin Assay in Myoblasts, signal relative to DMSO ([3]; 5 uM): 1.011
- Burkin Assay in Myoblasts, signal relative to DMSO ([3]; 10 uM): 0.972
- Burkin Assay in Myoblasts, signal relative to DMSO ([3]; 20 uM): 0.9909
- Burkin Assay in Myoblasts, signal relative to DMSO ([3]; 40 uM): 1.026

Compound: Cc1ccc(NC(=O)CC2COc3ccccc3O2)cc1 (centres unmarked) [MLS000534926-01]
- Burkin Assay in Myotubes (signal relative to DMSO) ([1]; 0.5 uM): 1.026
- Burkin Assay in Myotubes (signal relative to DMSO) ([1]; 1 uM): 0.9445
- Burkin Assay in Myotubes (signal relative to DMSO) ([1]; 5 uM): 1.006
- Burkin Assay in Myotubes (signal relative to DMSO) ([1]; 10 uM): 0.9622
- Burkin Assay in Myotubes (signal relative to DMSO) ([1]; 20 uM): 1.338
- Burkin Assay in Myotubes (signal relative to DMSO) ([1]; 40 uM): 0.8565
- CMV-LACZ in Myotubes (β-galactosidase activity relative to DMSO) ([2]; 5 uM): 0.9724
- CMV-LACZ in Myotubes (β-galactosidase activity relative to DMSO) ([2]; 10 uM): 0.969
- CMV-LACZ in Myotubes (β-galactosidase activity relative to DMSO) ([2]; 20 uM): 0.9547
- CMV-LACZ in Myotubes (β-galactosidase activity relative to DMSO) ([2]; 40 uM): 0.844
- Burkin Assay in Myoblasts, value relative to DMSO ([3]; 0.5 uM): 1.522
- Burkin Assay in Myoblasts, value relative to DMSO ([3]; 1 uM): 0.9473
- Burkin Assay in Myoblasts, value relative to DMSO ([3]; 5 uM): 0.8586
- Burkin Assay in Myoblasts, value relative to DMSO ([3]; 10 uM): 0.8832
- Burkin Assay in Myoblasts, value relative to DMSO ([3]; 20 uM): 0.5996
- Burkin Assay in Myoblasts, value relative to DMSO ([3]; 40 uM): 0.4222

— patent US9980943B2, “Methods of treating muscular dystrophy” (BOARD OF REGENTS OF THE NEVADA SYSTEM OF HIGHER EDUCATION, …, priority 2013, dated 2018)
